Type in all cases: in vivo
One data set concerns Aphis craccivora. The data set is described as follows: Insecticidal activity against Aphis craccivora (Potter spray tower). The conditions noted are these: 24 h, read-out: Mortality rate (%) A. craccivora.
Another data set deals with Nilaparvata lugens. The data set is described as follows: Insecticidal activity against Nilaparvata lugens (Potter spray tower). The conditions noted are these: 24 h, read-out: Mortality rate (%) N. lugens.
The subject of another data set is Plutella xylostella. The data set can be described thus: Insecticidal activity against Plutella xylostella (soaking method).
A further data set relates to Chilo suppressalis. The data set is described as follows: Insecticidal activity against Chilo suppressalis (soaking method). The conditions noted are these: 96 h, read-out: Mortality rate (%) C. suppressalis.
A further data set has as its system Helicoverpa armigera. The data set can be described thus: Insecticidal activity against Helicoverpa armigera (soaking method).
Data set [1] deals with honeybees (Apis mellifera). The data set can be described thus: Bee contact toxicity. The conditions noted are these: for Mortality: 1 μL of 10 × 10^4 mg A.I./L per bee. The protocol:
(§1) The test bees were Italian bees (Apis mellifera), and the newly born adult worker bees (<24 h) were selected for drug drip treatment. Weigh 50 mg of test substance FLP and fully dissolve it in DMSO to obtain 10 × 10^4 mg A.I./L of stock liquid medicine; dissolve B4 fully in DMSO and fix the volume to a 1-ml volumetric flask to obtain 11.6 × 10^4 mg A.I./L stock solution.
Contact toxicity. 10 × 10^4 mg A.I./L of mother liquor was used as the test liquid, and 1 μL of the solution containing the tested drug was dripped onto the back of the front chest of bees by a micro-dropper. Then, bees were put into a beekeeping box and cultured in dark conditions at a temperature of 30 ± 1°C and relative humidity of 50%, with a 50% sucrose solution as food for 48 h. Taking the solvent drip bees without the drug to be tested as the blank control, the treatment group and the control group were set up with three replicates, and 10 bees were used in each replicate.
(§2) Statistical analysis. Using the statistical software SPSS16.0, the LD50 value and 95% confidence limit of the half lethal dose of the sample to bees were obtained by regression statistical analysis with the probit analysis method.

The test system of data set [2] is honeybees (Apis mellifera). The data set is described as follows: Bee acute oral toxicity. As to conditions: adult bees; time not stated. The protocol: as §1
Oral toxicity. Before the formal experiment, a pre-experiment was carried out. According to the formal experimental conditions, three to four dose groups were set at large intervals to observe the death of bees between 24 and 48 h and determine the linear range of the lethal effect of drugs on bees. According to the pre-test results, determine the concentration range of the formal test and set five to seven test dose groups. Starve bees for 2 h before being infected, and then eliminate bees that are dying or have abnormal behaviors; put 200 μL of test liquid medicine in the feeding tube, and after the liquid medicine is consumed (within 6 h), take out the feeder to measure the weight of the food that has not been consumed. Then, the bees were fed with sucrose solution without test samples. Cultivate in the dark. At the same time, feeding 50% sucrose solution as a blank control, the treatment group and the control group were set up with three replicates, and 20 bees were used in each replicate. According to the results of the pre-experiment, if the toxicity of the drug to bees is low, the upper limit dose of 100 μg a.i./bee is set for the limit test of bees, that is, when the tested substance reaches 100 μg a.i./bee, no bees die, so there is no need to continue the test. If the solubility of the test substance is less than 100 μg a. i./bee, the maximum solubility is adopted as the upper limit concentration. The test results were examined at 24 and 48 h, respectively, and the number of deaths and poisoning symptoms were recorded. The standard of death is touching the bee's body, and when it can't crawl, it is judged as death.
as §2

[3] abbreviates: Plutella xylostella, 48 h, read-out: Mortality rate (%) P. xylostella.

The structures appear in SMILES notation. Several values for one entry are separate records, joined by “and”; a condition that tells them apart may be missing. Equal values may be shown once. Bounds are passed on as bounds.

Regarding `O=C(N=c1ccccn1Cc1ccc(Cl)nc1)C(F)(F)F` [FLP, flupyrimin], the figures for the mortality at 100 µg/mL in the data set with Aphis craccivora, in the data set with Nilaparvata lugens and in the data set on Plutella xylostella (setting [3]) were 100%, 100% and 0%, respectively. For the same compound, the mortality (in general, the share of the test organisms that died) at 400 µg/mL in the data set on Aphis craccivora amounted to 100%; in the data set with Nilaparvata lugens, 100%; in the data set on Plutella xylostella (setting [3]), 100%; in the data set on Chilo suppressalis it was 100%; with Helicoverpa armigera (Helicoverpa armigera, 48 h, read-out: Mortality rate (%) H. armigera), 0%. In addition, the “Mortality rate (%) P. xylostella” value in the data set on Plutella xylostella (25 μg/mL, 2nd instar larvae, counted 2 days later) is “no insecticidal activity”. For the same compound, the mortality at 25 µg/mL in the data set with Plutella xylostella (setting [3]) was 0%. Besides, the “Mortality rate (%) H. armigera” value with Helicoverpa armigera (400 μg/mL, 2nd instar larvae, counted 2 days later) is “inactive”. Moreover, the LD50 in data set [1] (Contact toxicity, 24 h) is on record as >11.0 μg a.i./bee. In addition, the Toxicity level entry in data set [1] (Contact toxicity, 24 h) is “Low toxicity”; in data set [1] (Contact toxicity, 48 h), “Low toxicity”. Moreover, the Mortality in data set [1] (Contact toxicity, 24 h) is 12 and 9; in data set [1] (Contact toxicity, 48 h), 13 and 20. Moreover, the LD50 contact toxicity in data set [1] (adult bees, time not stated) was > 11.0 μg a.i./bee. In data set [2], the LD50 oral toxicity was > 11.0 μg a.i./bee.
